Where a SMILES comes first, the peptide text is derived from it.
Legend:
DRB1*0101 = target: T1, DRB1*0101 (Homo sapiens, UniProt P01903+P01911, A100R/D57E/F55L/F60I/F76Y/I96L/L162R/M171V/P40L/Q125E/R42F/V115G/Y59C); test: Competition binding assay using soluble HLA class II
T1 construct: endogenous in cells; host or cells: cell lysate

DRB1*0301 = target: T2, DRB1*0301 (Homo sapiens, UniProt P01903+P01911, A100K/A102G/A103R/A169T/F55Y/I96L/K41T/L162R/M171V/P40S/Q125H/Q178H/Q39Y/R42S/S66N/T106N/T262R/W38E/Y61H); test: as above
T2 construct: endogenous in cells; HLA-DR was extracted from cell lysates on an LB3.1 antibody column

DRB1*0401 = target: T3, DRB1*0401 (Homo sapiens, UniProt P01903+P01911, A100K/A169T/F76Y/I96L/K127E/L162R/M171V/N62H/P40V/Q125Y/R42H/S133A/S149N/S66Y/V115G/V209L/W38E); test: as above; conditions: HLA-DRB1*0401; individual experiment or mean of several
T3 construct: endogenous in cells; host or cells: cell lysate

HLA-A03 = target: T4, HLA-A03 (Homo sapiens, UniProt P04439); test: Competition binding assay using soluble HLA class I; conditions: HLA-A1101 section; read-out: binds A0301 (asterisk in Ki column)
T4 construct: endogenous in cells

Structure (SMILES) | IC50 (DRB1*0101) | IC50 (DRB1*0301) | IC50 (DRB1*0401) | Ki (HLA-A03)
CC(C)C[C@H](NC(=O)[C@@H](NC(=O)[C@@H](NC(=O)[C@@H](N)CC(C)C)C(C)C)C(C)C)C(=O)N[C@@H](C)C(=O)N[C@H](C(=O)N[C@@H](C)C(=O)N[C@H](C(=O)N1CCC[C@H]1C(=O)N1CCC[C@H]1C(=O)NCC(=O)N[C@@H](CO)C(=O)N[C@H](C(=O)N[C@H](C(=O)N[C@H](C(=O)O)C(C)C)[C@@H](C)O)C(C)C)[C@@H](C)O)[C@@H](C)O (H-LVVLATATPPGSVTV-OH; N-terminus and C-terminus assumed) | 73 nM | 4230 nM | 4 nM | –
CC[C@H](C)[C@H](NC(=O)[C@@H]1CCCN1C(=O)[C@H](CCC(N)=O)NC(=O)[C@@H](N)CCCNC(=N)N)C(=O)N1CCC[C@H]1C(=O)N[C@@H](CCCCN)C(=O)N[C@@H](C)C(=O)N[C@@H](CCCNC(=N)N)C(=O)N[C@@H](CCCNC(=N)N)C(=O)O (H-RQPIPKARR-OH) | – | – | – | < 1000 nM
CC(C)C[C@H](NC(=O)[C@@H](N)Cc1ccc(O)cc1)C(=O)N[C@@H](CC(C)C)C(=O)N1CCC[C@H]1C(=O)N[C@@H](CCCNC(=N)N)C(=O)N[C@@H](CCCNC(=N)N)C(=O)NCC(=O)N1CCC[C@H]1C(=O)N[C@@H](CCCNC(=N)N)C(=O)O (H-YLLPRRGPR-OH) | – | – | – | < 1000 nM
